Measured values: article PMC9917184, “Synthesis and Biological Evaluation of Potential Oncoimmunomodulator Agents” (International Journal of Molecular Sciences, 2023)

Experiments:
c-Myc = test: Total c-Myc relative quantification by flow cytometry in cancer cell lines; format: cell-based, human; details: 24 h
Method: The effect of these triazole derivates on c-Myc and PD-L1 was measured in three different cancer cell lines (HT-29, MCF-7, A-549) by flow cytometry. Thus, cells were incubated for 24 h with the corresponding compound at a concentration of 100 μM. Dimethyl sulfoxide (DMSO)-treated cells were used as the negative control, and a PD-L1 inhibitor, BMS-8 [29, 31], was used as a reference control. After permeabilization and fixation, cells were treated with anti-PD-L1 conjugated to AlexaFluor®647 and anti-c-Myc conjugated to fluorescein to determine the amount of both targets related to the negative control. Table 1 show the results in terms of the percentage of the detected target in relation to the negative control. This assay was carried out on cancer cell lines HT-29, MCF-7, and A-549.
To study the effect of the compounds on every biological target in cancer cell lines, the compounds were used at a 100 µM dose.
For the assay, 10^5 cells per well were incubated for 24 h with the corresponding dose of the tested compound in a total volume of 500 μL of their growth media.
To detect total PD-L1 and c-Myc, after the cell treatments, they were collected and fixed with 4% in PBS paraformaldehyde. After fixation, a treatment with 0,5% in PBS Triton™ X-100 was performed, and finally, cells were stained with FITC Mouse monoclonal Anti-c-Myc (ab223913) and Alexa Fluor® 647 Rabbit monoclonal Anti-PD-L1 (ab215251).

PD-L1 gene expression = PD-L1 gene expression by RT-qPCR in MCF-7; format: cell-based, human; details: MCF-7, 100 µM, 48 h, control = 100
Method: We also studied the effect of compounds 3, 5, and 7 on both c-Myc and PD-L1 gene expression by RT-qPCR. For this study, we treated MCF-7 cells with 100 µM of the abovementioned compounds, and DMSO was used as a negative control and BMS-8 as a reference compound. After 48 h, cells were lysated, and after the extraction of their mRNA, a RT-pPCR assay was performed as described in the Experimental section.
MCF-7 cells at 70–80% confluence were collected, and 1.5 × 10^5 cells were placed in a six-well plate in 1.5 mL of medium. After 24h, cells were incubated with the corresponding compounds for 48 h. Cells were collected, and the total cellular RNA from MCF-7 cells was isolated using the Ambion RNA extraction kit according to the manufacturer’s instructions. The cDNA was synthesized by MMLV-RT with […] of extracted RNA and oligo(dT)15 according to the manufacturer’s instructions. Genes were amplified by a thermal cycler and StepOnePlus™ TaqMan® probes. TaqMan® Gene Expression Master Mix Fast containing the appropriate buffer for the amplification conditions, dNTPs, thermostable DNA polymerase enzymes, and a passive reference probe was used. To amplify each of the genes, the predesigned primers sold by Life Technologies TaqMan® Gene Expression Assays, Hs99999903-m1 (β-actin), Hs00153408-m1 (c-Myc), and Hs00204257-m1, (PD-L1) were used.

A-549 = A-549 cell viability in co-culture with Jurkat T cells (flow cytometry count); format: cell-based, human; details: 24 h; for viability at 100 µM: Homo sapiens, A549, A-549/Jurkat T co-culture, IFN-γ stimulated, read-out: percentage of living A-549 cells relative to non-treated co-cultures
Method: The effect of the synthesized compounds on tumor cell proliferation in the presence of PD-1-expressing Jurkat T cells was also studied. This assay was carried out, as in the previous experiments, in the HT29, MCF7, and A549 cell lines (see Table 4). Interferon γ-stimulated cancer cells were treated for 24 h with the compounds at 100 μM in presence of Jurkat T cells. Then, cells were counted using flow cytometry. The percentage of living cells relative to non-treated co-cultures (control) was established for both cancer and immune cells in every co-culture.
To study the effect of the compounds on the cell viability in co-culture with Jurkat T cells or THP-1 cells, 10^5 or 2 × 10^5 of the corresponding cancer cells line per well were seeded and incubated for 24 h, then the medium was changed by one cell culture medium supplemented with IFN-γ (10 ng/mL; human, Invitrogen®) and containing 5 × 10^5 or 10^5 Jurkat T cells or THP-1, respectively, per well and 100 µM of the corresponding compound or DMSO for the […] control. After 24 h/48 h of incubation, supernatants were collected to determine Jurkat T or THP-1 living cells, and on the other hand, corresponding cancer cells were collected with trypsin. Both types of suspension cells were fixed with 4% in PBS paraformaldehyde and counted by flow cytometry.

IL-6 = IL-6 secretion to the media by ELISA; format: cell-based, human; details: 100 μM, 24 h, control = 100
Method: We determined the effect of these compounds on the secretion of IL-6 in monocultures of MCF-7 cells, to establish the effect on cancer cells in monocultures of immune cells THP-1 and in co-cultures of MCF-7 and THP-1 (1:5 proportion). Assays were performed by ELISA using cell media after treatments with selected compounds at 100 μM for 24 h.

PD-L1 = PD-L1 (Homo sapiens, UniProt Q9NZQ7); test: Immunofluorescence microscopy of PD-L1 in MCF-7; format: cell-based; design: Alexa Fluor® 647 Rabbit monoclonal Anti-PD-L1 (ab215251); endogenous in cells; host or cells: MCF-7; details: MCF-7, 24 h of treatment
Sequence of PD-L1 (Q9NZQ7 19-290): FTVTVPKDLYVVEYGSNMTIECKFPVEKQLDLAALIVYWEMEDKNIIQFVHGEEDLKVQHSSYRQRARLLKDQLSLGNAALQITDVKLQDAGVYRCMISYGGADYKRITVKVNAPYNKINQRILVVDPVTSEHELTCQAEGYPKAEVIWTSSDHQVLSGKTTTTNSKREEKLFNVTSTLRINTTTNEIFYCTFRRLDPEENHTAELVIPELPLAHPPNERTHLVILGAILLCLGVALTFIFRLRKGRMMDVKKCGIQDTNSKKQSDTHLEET
Text: We also observed the effect of triazole derivatives 3, 5 and 7 on both targets in MCF-7 by immunofluorescence microscopy (see Figure 2). We stained both targets with anti-PD-L1 conjugated to AlexaFluor®647 (red in Figure 2), as well as anti-c-Myc conjugated to fluorescein (green in Figure 2), to determine the amount of both targets. The nucleus was stained with Hoechst (blue in Figure 2).
We observed that in the DMSO control, c-Myc was located in the nucleus of the cell and the nucleus membrane nearby, and PD-L1 was preferentially positioned in the membrane or cytosol, favoring the contact between surrounding cells.
For immunofluorescence microscopy of the microtubule network, […] cells were plated on cover glass and incubated with the selected compounds. Cells were then fixed in 4% formaldehyde (in PBS pH 7.4) for 20 min at room temperature and permeabilized with PBS-Triton X-100 0.5% for 1 min at room temperature. Direct immunostaining was carried out for 1 h at room temperature with FITC Mouse monoclonal Anti-c-Myc (ab223913) and Alexa Fluor® 647 Rabbit monoclonal Anti-PD-L1 (ab215251). Then, cells were washed in PBS, and cover glasses were mounted with a drop of ProLong® antifade solution (Invitrogen). The cytoskeleton was imaged by a confocal laser scanning microscope (CLSM) Leica SP5 with a Leica inverted microscope, equipped with 20x objective. Each image was recorded with the CLSM’s spectral mode selecting specific domains of the emission spectrum. The FITC fluorophore was excited at 488 nm with an argon laser, and its fluorescence emission was collected between 496 nm and 535 nm.

[1] = A-549, 100 µM, relative to negative control (DMSO)
[2] = HT-29, 100 µM, detected target relative to negative control (DMSO)
[3] = MCF-7, 100 µM, relative to negative control (DMSO)

PD-L1 localisation (confocal images) (PD-L1) | Structure (SMILES) | % c-Myc (c-Myc; [1]) [%] | % c-Myc (c-Myc; [2]) [%] | % c-Myc (c-Myc; [3]) [%] | % PD-L1 gene expression (PD-L1 gene expression) [%] | viability at 100 µM (A-549) [%] | Percentage of secreted IL-6 to the media (IL-6; MCF7 monoculture) [%] | inhibition rate of A-549 cell viability (A-549; co-cultured with Jurkat T cells, 100 μM) | Percentage of secreted IL-6 to the media (IL-6; MCF7 + THP-1 co-culture (1:5)) [%] | Percentage of secreted IL-6 to the media (IL-6; THP-1 monoculture) [%]
located preferentially in the nucleus | Cc1c(COc2ccc(CN3CCCCC3C(=O)O)cc2Br)cccc1-c1ccccc1 (centres unmarked) [BMS-8, reference compound] | 142 ± 8 | 119 ± 9 | 130 ± 12 | 31 ± 12 | 111 ± 9 | 41 ± 65 |  |  | 
accumulates in the cytosol | COc1ccc(C(OCCc2ccc(CCn3cc(-c4ccc(Br)cc4)nn3)cc2)(c2ccccc2)c2ccc(OC)cc2)cc1 [Compound 3, 1-(4-(2-(bis(4-methoxyphenyl)(phenyl)methoxy)ethyl)phenethyl)-4-(4-bromophenyl)-1H-1,2,3-triazole] | 66 ± 5 | 67 ± 8 | 65 ± 4 | 33 ± 10 | 75 ± 7 | 92 ± 4 | active | 156 ± 12 | 183 ± 5
preferentially in cytosol | COc1ccc(C(OCCc2ccc(CCn3cc(-c4ccccc4Br)nn3)cc2)(c2ccccc2)c2ccc(OC)cc2)cc1 [Compound 7, 1-(4-(2-(bis(4-methoxyphenyl)(phenyl)methoxy)ethyl)phenethyl)-4-(2-bromophenyl)-1H-1,2,3-triazole] | 67 ± 6 | 43 ± 7 | 51 ± 3 | 36 ± 9 | 100 ± 4 | 91 ± 39 |  | 115 ± 4 | 158 ± 11

Structure (SMILES) | PD-L1 localisation (confocal images) (PD-L1) | % c-Myc (c-Myc; [1]) [%] | % c-Myc (c-Myc; [2]) [%] | % c-Myc (c-Myc; [3]) [%] | % PD-L1 gene expression (PD-L1 gene expression) [%] | viability at 100 µM (A-549) [%] | Percentage of secreted IL-6 to the media (IL-6; MCF7 monoculture) [%] | inhibition rate of A-549 cell viability (A-549; co-cultured with Jurkat T cells, 100 μM) | Percentage of secreted IL-6 to the media (IL-6; MCF7 + THP-1 co-culture (1:5)) [%] | Percentage of secreted IL-6 to the media (IL-6; THP-1 monoculture) [%]
COc1ccc(C(OCCc2ccc(CCn3cc(-c4cccc(Br)c4)nn3)cc2)(c2ccccc2)c2ccc(OC)cc2)cc1 [Compound 5, 1-(4-(2-(bis(4-methoxyphenyl)(phenyl)methoxy)ethyl)phenethyl)-4-(3-bromophenyl)-1H-1,2,3-triazole] | accumulated in the interface of cells and in the nucleus | 72 ± 9 | 66 ± 10 | 61 ± 11 | 21 ± 8 | 105 ± 3 | 73 ± 29 |  | 137 ± 24 | 173 ± 24
